Laboratory results reported in patent publication US8916164B2, “Methods of enhancing adjuvaticity of vaccine compositions” (ABIVAX, priority 2007, dated 2014).
“Also recorded” adds a separate entry of the source.

Key:
NKT cells [1] = assay: Increase in NKT cells (day 7 / day 0) in PBL/PBMC cultures from healthy donors; format: cell-based; conditions: PBL cultures from human volunteers (FIG. 3)
Description: NKT staining was performed on a panel of fourteen healthy donor peripheral blood lymphocytes (PBL) or peripheral blood […] (PBMC) samples. PBLs were isolated from 12 subjects, and PBMCs were isolated from 2 subjects. Each isolated cell sample was split into two samples. The first sample from each donor was stained with 10 μl anti-Vβ11 FITC (Beckman Coulter), 10 μl anti-TCRαβ-PC5 (Beckman Coulter), and 2 μl PE-labeled PBS-57-CD1d-tetramer. The second sample from each donor was stained with 10 μl Vβ11, 10 μl anti-TCRαβ-FITC, and 2 μl PE-labeled empty-CD1d-tetramer.
To determine a percentage increase in NKT cells, the number of NKT cells on day 7 was divided by the number of NKT cells on day 0.

[2] = system: TCRαβ cells and NKT cells in the spleen; assay: TCRαβ and NKT cell populations in the spleen of mice 24 hours after intravenous administration; format: in vivo, C57B1/6J mice; conditions: 0.97 μg αGalCer or 1.3 μg PBS57, 24 hours; for percentage of TCRαβ cells in the spleen: compared with PBS and carrier control (FIG. 4A); for percentage of NKT cells within the TCRαβ population in the spleen: relative to control (FIG. 4B)
Description: (§1) To test for adjuvant activity of PBS57 in vivo, mice were injected with test compounds and assayed for cell activation and expansion at 24 hours. Four groups of five C57B1/6J mice were each intravenously administered phosphate buffered saline (PBS) with carrier (DMSO alone), 0.97 μg of αGalCer, 1.3 μg of PBS57, or 0.97 μg of PBS83 in a total of 100 μl PBS. 24 hours after administration of the test compound, the mice were sacrificed and blood samples and splenocytes were isolated by standard methods. Percentage of NKT cells in the spleen was evaluated by flow cytometry with staining using anti-TCRαβ-FITC and PE-labeled CD1d-tetramer loaded with PBS-57 (PBS57-tetramer) or without lipid (empty-tetramer). […] The percentage of NKT cells was determined by subtracting the percentage of PBS57-tetramer+ cells from the percentage of empty-tetramer+ cells in the TCRαβ population.

tetanus toxoid = assay: Antibody (IgG) response to tetanus toxoid immunization, tetanus toxoid specific ELISA; format: in vivo; conditions: mice, IM day 0 and day 15, 10 μg TT with 1 μg PBS57 versus TT alone, blood day 0, 15 and 30 (FIG. 14)
Description: IgG titers were determined by standard methods from blood samples drawn on day 0, 15 and 30. The antibody titer was determined by tetanus toxoid specific ELISA.

[3] = system: Ova-specific CD8+ T cells; assay: H2Kb-SIINFEKL pentamer staining of CD8+ T cells in blood after immunization with Ova; format: in vivo, C57/B1/6J CD45.2 female mice
Description: A mouse model was used to test the in vivo specific T cell response (CD8+) elicited by PBS57 in combination with antigen. C57/B1/6J CD45.2 female mice were immunized intramuscularly on day 0 and 14 with antigen (Ovalbumin, Ova, grade VII, Sigma, St. Louis, Mo.) with or without adjuvant, adjuvant alone, or carrier alone (control) in a total of 100 μl PBS carrier. Test adjuvant was 1 μg PBS57 with or without 50 μg Ova. Each group included at least three mice. Blood was collected from each mouse at day 21 and isolated cells were subjected to pentamer staining with H2K^b-SIINFEKL pentamers after blocking the Fc receptor. FACS analysis was performed including only CD8+ cells in the analysis (CD19+ cells were excluded from the analysis to exclude any B cells). […] The results are reported as mean+/−standard deviation of H2K^b-SIINFEKL specific CD8+ T cells in the blood.
A mouse model was used to test the in vivo specific T cell response (CD8+) elicited by PBS57 in combination with antigen as compared to that of αGalCer. C57/B1/6J CD45.2 female mice were immunized subcutaneously on day 0 and 14 with antigen (Ovalbumin, Ova, grade VII, Sigma, St. Louis, Mo.) with or without adjuvant, adjuvant alone, or carrier alone (control) in a total of 100 μl PBS carrier. Test adjuvant was 1 μg PBS57 or αGalCer with or without 50 μg Ova. Each group included at least three mice. […]

NKT cells [4] = assay: Expansion of NKT cells in culture of peripheral blood lymphocytes (PBL), flow cytometry on day 7; format: cell-based, human; conditions: for percentage of NKT cells in the CD3+ population: PBL of two healthy donors, 10 ng/ml, 100 ng/ml or 1 μg/ml, rhIL-2, day 7 (FIG. 1)
Description: PBLs were derived from two healthy donors and grown in RPMI cell culture media with 5% AB serum. Cells were plated on 12-well plates at 2×10^6 PBL/well/2 ml. Wells were treated with negative controls (0.05% Tween20 and 1% DMSO in PBS or 0.05% Tween20 and 10% DMSO in PBS) or the test adjuvants (αGalCer, PBS-20, PBS-25, or PBS-57) at a final concentration of 10 ng/ml, 100 ng/ml or 1 μg/ml. The chemical structures for control compounds αGalCer, PBS-20 and PBS25 are shown below:
All cultures were supplemented with recombinant human IL2 (rhIL-2) to obtain final concentration of 100 UI/ml by day 1. All cells were cultured for 10 days at 37° C. under 5% CO2. On day 7, half the culture medium (1 ml) was removed for NKT analysis. Percentage of NKT cells in the CD3+ population was detected by flow cytometry using fluorescently labeled CD1 tetramers or fluorescently labeled antibodies (anti-CD3, anti-Vβ11, and anti NKT). The NKT population was identified by flow cytometry as the Vβ11+, Tetramer+ and TCRαβ+ population. NKT cell percentage was calculated in each sample by subtracting the Vβ11+ PBS -57-tetramer+ TCRαβ+ from the Vβ11+ empty-tetramer+TCRαβ+.
Peripheral blood lymphocytes were derived from two healthy donors and cultured in RPMI with 5% AB serum. Cells are plated in a 12-well plate with 2×10^6 cells per well per 2 ml media. One well received carrier (0.05% Tween20 and 1% DMSO in PBS) as a negative control, and test wells received αGalCer, PBS-25, PBS-57, or PBS-83 at final concentrations of 1 ng/ml, 10 ng/ml and 100 ng/ml. The structure of PBS-83 is shown below:
All cultures were supplemented with rhIL-2 to obtain a final concentration of 100 UI/ml by day 1, and cultured for 7 days at 37° C. under 5% CO2 conditions. At day 7, the percentage NKT cells was detected by flow cytometry.

INF-γ and IL-4 = conditions: in vitro; cited from earlier work
[5] = system: Ova-specific target cells; assay: In vivo specific cytotoxic T cell (CD8+) response: specific lysis of CFSE-labeled SIINFEKL-loaded target cells in immunized mice; parameters: species or system C57/B1/6J CD45.2 female mice; conditions: for specific lysis of Ova-specific target cells in the blood, IM versus IV: 400 μg Ova and 1 μg adjuvant in 50 μl PBS, IM or IV, readout day 11 (FIG. 13); for specific lysis of Ova-specific target cells in the blood, intramuscular immunization: IM hind left leg, 400 μg Ova with 1 μg to 10 pg adjuvant, readout day 11 (FIG. 11, FIG. 12); for specific lysis of Ova-specific target cells in the blood, intravenous immunization: 50 μg Ova with varying doses of adjuvant, readout day 11 (FIG. 8, FIG. 9)
[6] = system: CD11c+CD8α− and CD11c+CD8α+ dendritic cells; assay: Dendritic cell subsets and maturation (CD40, CD80, CD86) in splenocytes of mice 24 hours after intravenous administration; format: in vivo, C57B1/6J mice; conditions: for decrease of both subsets of DCs (CD11c+CD8α− and CD11c+CD8α+) compared to the control: splenocytes; for percentage of CD40+, CD80+ and CD86+ expressing cells in both the CD11c+CD8α− and CD11c+CD8α+ populations: splenocytes (FIGS. 5A-5F)
Description: as §1
Dendritic cells (DCs) were detected in the splenocytes by flow cytometry by staining with anti-CD11c R-PE (BD Pharmingen) and anti-CD8α FITC (Beckman Coulter). Two subsets of dendritic cells, CD11c+CD8α− and CD11c+CD8α+ populations, were analyzed further. […] To determine if administration of glycolipid induced maturation of the two subsets of dendritic cells, the cells were stained with anti-CD40 Biotin/Stepta APC (BD Bioscience), anti-CD80 Biotin (BD Pharmingen)/Stepta APC (BD Bioscience) and anti-CD86 Biotin (BD Pharmingen)/Stepta APC (BD Bioscience) antibodies and analyzed by flow cytometry. FIGS. 5A and 5B show the percentage of CD40 positive cells in both the CD11c+CD8α− and CD11c+CD8α+ cells, respectively. […] Horizontal lines represent the averages.

| Structure (SMILES) | increase in NKT cells (number on day 7 divided by number on day 0) (NKT cells [1]) | percentage of TCRαβ cells in the spleen [2] | percentage of NKT cells within the TCRαβ population in the spleen [2] | antibody (IgG) titer to tetanus toxoid (tetanus toxoid) | H2Kb-SIINFEKL specific CD8+ T cells in the blood, intramuscular immunization ([3]; IM day 0 and 14, 1 μg PBS57 with 50 μg Ova, compared to Ova alone, blood day 21 (FIG. 15)) | H2Kb-SIINFEKL specific CD8+ T cells in the blood, subcutaneous immunization ([3]; SC day 0 and 14, 1 μg PBS57 with 50 μg Ova, compared to Ova alone or αGalCer and Ova, blood day 21 (FIG. 16)) | percentage of NKT cells in the CD3+ population (NKT cells [4]) | increase in NKT cells over cells treated with αGalCer (NKT cells [4]; separate experiment, PBL of two healthy donors, 1, 10 and 100 ng/ml, day 7 (FIG. 2)) | release of INF-γ and IL-4 (INF-γ and IL-4) | specific lysis of Ova-specific target cells in the spleen ([5]; 1 μg adjuvant with 50 μg Ova on day 0, target cells day 10, readout day 11 (FIG. 7)) | specific lysis of Ova-specific target cells in the blood, IM versus IV [5] | specific lysis of Ova-specific target cells in the blood, intramuscular immunization [5] | specific lysis of Ova-specific target cells, varying Ova dose ([5]; IV, 1 μg PBS57 with 50 μg to 10 pg Ova, readout day 11 (FIG. 10)) | specific lysis of Ova-specific target cells in the blood, intravenous immunization ([5]; IV) | decrease of both subsets of DCs (CD11c+CD8α− and CD11c+CD8α+) compared to the control [6] [%] | percentage of CD40+, CD80+ and CD86+ expressing cells in both the CD11c+CD8α− and CD11c+CD8α+ populations [6] |
| --- | --- | --- | --- | --- | --- | --- | --- | --- | --- | --- | --- | --- | --- | --- | --- | --- |
| CCCCCCCCC=CCCCCCCCCCCCCCC(=O)N[C@@H](OC1OC(CNC(C)=O)C(O)C(O)C1O)C(O)[C@H](O)CCCCCCCCCCCCCC (stereo partly drawn) [PBS57] | substantial increase in NKT cells | increase in percentage of TCRαβ cells | decrease in percentage of NKT cells | enhanced the antibody response to TT | increase in Ova-specific CD8+ T cells | increase in Ova-specific CD8+ T cells | expansion of NKT cells | at least a two fold increase | induce the release of the INF-γ and IL-4 | produced cytotoxic lysis of Ova-specific target cells | caused a cytotoxic response regardless of the route of administration | can elicit a specific cytotoxic response when injected both intravenously and intramuscularly | dependent on antigen concentration | dose-dependent specific cytotoxic effect | 50 | substantially increased |
| CCCCCCCCCCCCCCCCCCCCCCCCCC(=O)N[C@@H](COC1OC(CO)C(O)C(O)C1O)[C@H](O)[C@H](O)CCCCCCCCCCCCCC (stereo partly drawn) [αGalCer, α-galactosyceramide, reference compound] | – | increase in percentage of TCRαβ cells | decrease in percentage of NKT cells | – | – | – | expansion of NKT cells | – | – | – | did not induce a cytotoxic response when injected intramuscularly | not able to generate a specific cytotoxic T cell response; also recorded: can only elicit a cytotoxic response when injected intravenously | – | dose dependent specific cytotoxic effect; also recorded: elicited a cytotoxic response when injected intravenously at 1 μg-10 ng | 50 | substantially increased |
